Results taken from ChEMBL document CHEMBL1201862, “PubChem BioAssay data set” (2004).
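Results reflect a 48-hour exposure of cells in 96-well plates to compound at five concentrations. The concentration for 50% growth inhibition is given as GI50.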 Activity calls are given as the source filed them. No stated cut-off is given here; in the data, active = GI50 up to about 1.1 µM and inactive = higher.

Legend:
Test in all cases: NCI-60 cell line screen, 48 h
COLO 205 = test system: COLO 205
HCT-116 = test system: HCT-116
HOP-62 = test system: HOP-62
HT-29 = test system: HT-29
M14 = test system: M14
MCF7 = test system: MCF7
NCI-H226 = test system: NCI-H226
NCI-H23 = test system: NCI-H23
NCI-H522 = test system: NCI-H522
OVCAR-5 = test system: OVCAR-5
PC-3 = test system: PC-3
RPMI-8226 = test system: RPMI-8226
SF-268 = test system: SF-268
SK-MEL-28 = test system: SK-MEL-28
SK-OV-3 = test system: SK-OV-3
SNB-75 = test system: SNB-75
TK-10 = test system: TK-10
UACC-62 = test system: UACC-62
SNB-19 = test system: SNB-19
SR = test system: SR

Row | SMILES | GI50 (COLO 205) | GI50 (HCT-116) | GI50 (HOP-62) | GI50 (HT-29) | GI50 (M14) | GI50 (MCF7) | GI50 (NCI-H226) | GI50 (NCI-H23) | GI50 (NCI-H522) | GI50 (OVCAR-5) | GI50 (PC-3) | GI50 (RPMI-8226) | GI50 (SF-268) | GI50 (SK-MEL-28) | GI50 (SK-OV-3) | GI50 (SNB-75) | GI50 (TK-10) | GI50 (UACC-62) | GI50 (SNB-19) | GI50 (SR)
1 | Cc1cc(C)c2c(-c3ccccc3)cc(=O)[nH]c2c1 | > 100 µM (inactive) | > 100 µM (inactive) | > 100 µM (inactive) | > 100 µM (inactive) | > 100 µM (inactive) | > 100 µM (inactive) | > 100 µM (inactive) | > 100 µM (inactive) | > 100 µM (inactive) | > 100 µM (inactive) | > 100 µM (inactive) | > 100 µM (inactive) | > 100 µM (inactive) | > 100 µM (inactive) | > 100 µM (inactive) | > 100 µM (inactive) | > 100 µM (inactive) | > 100 µM (inactive) |  | 
2 | CC(C)N(C(C)C)S(=O)(=O)C[C@]12CC[C@H](CC13OCC(CS(=O)(=O)c1ccccc1)O3)C2(C)C (stereo partly specified) | 17.6 µM (inactive) | 35.9 µM (inactive) | > 51.2 µM (inactive) | 33.4 µM (inactive) | 47 µM (inactive) | 36 µM (inactive) | 34.1 µM (inactive) | 47.3 µM (inactive) | 21.8 µM (inactive) | > 76.4 µM (inactive) | 35.3 µM (inactive) | 26.5 µM (inactive) | 59.2 µM (inactive) | > 93.5 µM (inactive) | 45.5 µM (inactive) | 27.6 µM (inactive) | 44.9 µM (inactive) | 49 µM (inactive) | 95.7 µM (inactive) | 
3 | C[C@H](N)C(=O)Nc1ccc(-c2nc3ccccc3s2)cc1 | 18.6 µM (inactive) | 15.2 µM (inactive) | 26.5 µM (inactive) | 20.9 µM (inactive) | 10.9 µM (inactive) |  | 26.8 µM (inactive) | 32.2 µM (inactive) | 18.5 µM (inactive) | 18.7 µM (inactive) | 20.2 µM (inactive) |  | 41.3 µM (inactive) | 18.5 µM (inactive) | 22.5 µM (inactive) | 18 µM (inactive) | 24.5 µM (inactive) | 18.5 µM (inactive) | 22.4 µM (inactive) | 15.1 µM (inactive)
4 | Cc1nc(C)c(C(=O)NNC(N)=S)cc1C(=O)NNC(N)=S | > 100 µM (inactive) | > 100 µM (inactive) | > 100 µM (inactive) | > 100 µM (inactive) | > 100 µM (inactive) | > 100 µM (inactive) | > 100 µM (inactive) | > 100 µM (inactive) | > 100 µM (inactive) | > 100 µM (inactive) | > 100 µM (inactive) | > 100 µM (inactive) | > 100 µM (inactive) | > 100 µM (inactive) | > 100 µM (inactive) |  | > 100 µM (inactive) | > 100 µM (inactive) | > 100 µM (inactive) | 
5 | CC12CC3c4ccccc4CN1C3(c1ccccc1)OC2=O (stereo unspecified) | > 100 µM (inactive) | > 100 µM (inactive) | > 100 µM (inactive) | > 100 µM (inactive) | > 100 µM (inactive) |  | > 100 µM (inactive) | > 100 µM (inactive) | > 100 µM (inactive) | > 100 µM (inactive) | > 100 µM (inactive) |  | > 100 µM (inactive) | > 100 µM (inactive) | > 100 µM (inactive) | > 100 µM (inactive) | > 100 µM (inactive) | > 100 µM (inactive) | > 100 µM (inactive) | 
6 | COc1ccccc1C1=C2C(=O)N(C)C(c3ccccc3OC)=C2C(=O)N1C | > 100 µM (inactive) | 37.4 µM (inactive) | 18.9 µM (inactive) | > 100 µM (inactive) | > 100 µM (inactive) | > 100 µM (inactive) | 84.3 µM (inactive) | 59 µM (inactive) | 43.2 µM (inactive) | > 100 µM (inactive) | > 100 µM (inactive) |  | 36.1 µM (inactive) | 76.6 µM (inactive) | 69.8 µM (inactive) |  | 70.6 µM (inactive) | > 100 µM (inactive) | 32 µM (inactive) | 
7 | CCOP(=O)(Nc1ccccc1P(=O)(OCC)OCC)OCC | > 100 µM (inactive) | > 100 µM (inactive) | > 100 µM (inactive) | > 100 µM (inactive) | > 100 µM (inactive) | > 100 µM (inactive) |  | > 100 µM (inactive) | > 100 µM (inactive) | > 100 µM (inactive) | > 100 µM (inactive) | > 100 µM (inactive) | > 100 µM (inactive) | > 100 µM (inactive) | > 100 µM (inactive) | > 100 µM (inactive) | > 100 µM (inactive) | > 100 µM (inactive) | > 100 µM (inactive) | 
8 | CCCCCCCCCCCCc1ccc(S(=O)(=O)O)cc1 | > 100 µM (inactive) | > 100 µM (inactive) | > 100 µM (inactive) | > 100 µM (inactive) | > 100 µM (inactive) | 98.9 µM (inactive) | 90.6 µM (inactive) | > 100 µM (inactive) |  | > 100 µM (inactive) | > 100 µM (inactive) | > 100 µM (inactive) | > 100 µM (inactive) | > 100 µM (inactive) | > 100 µM (inactive) | > 100 µM (inactive) | > 100 µM (inactive) | 34.4 µM (inactive) | > 100 µM (inactive) | 
9 | CN1CCN(c2ccc3nc(-c4cc(O)c5c(nc(CO)n5C)c4O)[nH]c3n2)CC1 | 15.9 µM (inactive) | 41.9 µM (inactive) | 52 µM (inactive) | 31.3 µM (inactive) | 34.7 µM (inactive) |  | 22.7 µM (inactive) | 64.3 µM (inactive) | 20.1 µM (inactive) | > 100 µM (inactive) | 32.3 µM (inactive) | 22.6 µM (inactive) | 48.1 µM (inactive) | > 100 µM (inactive) | > 100 µM (inactive) | 20.6 µM (inactive) |  | 11.6 µM (inactive) | 52.2 µM (inactive) | 
10 | Cc1nc2c(cc1OCc1ccccc1)C(=O)C1=C(C2=O)C2OC(=O)CC2OC1(C)C (stereo unspecified) | 0.326 µM (active) | 0.28 µM (active) | 1.52 µM (inactive) | 0.375 µM (active) | 0.536 µM (active) | 0.173 µM (active) | 1.09 µM (active) | 0.944 µM (active) | 0.149 µM (active) | 0.973 µM (active) | 0.56 µM (active) | 0.368 µM (active) | 0.475 µM (active) | 0.33 µM (active) |  | 1.66 µM (inactive) | 1.43 µM (inactive) | 0.174 µM (active) | 2.49 µM (inactive) | 
11 | CC(=O)Nc1ccc2c(c1)/C(=C\c1ccc([N+](C)(C)C)cc1)c1ccccc1-2 | 18 µM (inactive) | 85.3 µM (inactive) | 48.3 µM (inactive) | 35.5 µM (inactive) | 16 µM (inactive) | 32 µM (inactive) | 23.1 µM (inactive) | 64.4 µM (inactive) | 32.9 µM (inactive) | 18.8 µM (inactive) | 19.9 µM (inactive) | 24.9 µM (inactive) | 64.9 µM (inactive) | 35.5 µM (inactive) | 61.7 µM (inactive) | 28.1 µM (inactive) | > 100 µM (inactive) | 48 µM (inactive) | 23.6 µM (inactive) | 
12 | O=C(O)c1cc2ccccc2c(/N=N/c2ccccc2)c1O | 17.9 µM (inactive) | 35.4 µM (inactive) | 14.8 µM (inactive) | 11.8 µM (inactive) | 14.9 µM (inactive) |  |  | 16.7 µM (inactive) | 26.6 µM (inactive) | 24.9 µM (inactive) | 18.5 µM (inactive) | 21.6 µM (inactive) | 30 µM (inactive) | 29.8 µM (inactive) | 41.9 µM (inactive) | 19.8 µM (inactive) | 29 µM (inactive) | 17.4 µM (inactive) | 26.1 µM (inactive) | 
13 | CCCCOC(=O)C(NC(C(=O)OCCCC)c1cc(C(C)(C)C)c(O)c(C(C)(C)C)c1)c1cc(C(C)(C)C)c(O)c(C(C)(C)C)c1 (stereo unspecified) | > 100 µM (inactive) | 77.1 µM (inactive) | > 100 µM (inactive) | 76 µM (inactive) | > 100 µM (inactive) | > 100 µM (inactive) | > 100 µM (inactive) | > 100 µM (inactive) | > 100 µM (inactive) | > 100 µM (inactive) | > 100 µM (inactive) | 31.5 µM (inactive) | > 100 µM (inactive) | > 100 µM (inactive) | > 100 µM (inactive) | 8.63 µM (inactive) | > 100 µM (inactive) | > 100 µM (inactive) | > 100 µM (inactive) | 
14 | COc1ccc(-c2cc(=O)c3c(OC)c(OC)c(OC)cc3o2)cc1 | 22.1 µM (inactive) | 32.6 µM (inactive) | 21.1 µM (inactive) | 28.4 µM (inactive) | 54.8 µM (inactive) | 37.4 µM (inactive) | 27 µM (inactive) | 40.6 µM (inactive) | 23.7 µM (inactive) | 44 µM (inactive) |  | 27 µM (inactive) | 31.1 µM (inactive) | 45.6 µM (inactive) | 24.3 µM (inactive) | 26.9 µM (inactive) | 36 µM (inactive) | 27.5 µM (inactive) | 45 µM (inactive) | 11.3 µM (inactive)
15 | C(=C\c1cc(-c2ccc3ccccc3n2)nc2ccc3ccccc3c12)/c1ccc2ccccc2n1 | > 100 µM (inactive) | > 100 µM (inactive) | > 100 µM (inactive) | > 100 µM (inactive) | > 100 µM (inactive) | > 100 µM (inactive) | > 100 µM (inactive) | > 10 µM (inactive) |  | > 100 µM (inactive) | > 100 µM (inactive) | > 100 µM (inactive) | 74.1 µM (inactive) | > 100 µM (inactive) | > 100 µM (inactive) | 24 µM (inactive) | > 100 µM (inactive) | > 100 µM (inactive) | > 100 µM (inactive) | > 100 µM (inactive)
